Laboratory results: ChEMBL document CHEMBL1141978, “Synthesis and antibacterial activities of 5-hydroxy-4-amino-2(5H)-furanones” (2005)
≈ marks a conversion by molar mass, not a printed value.

Columns and labels:
Staphylococcus aureus [1] = assay: Zone of inhibition of Staphylococcus aureus after treatment with the compound; format: functional
Escherichia coli [2] = assay: Zone of inhibition of Escherichia coli after treatment with the compound; format: functional
Pseudomonas aeruginosa [3] = assay: Zone of inhibition of Pseudomonas aeruginosa after treatment with the compound; format: functional
Staphylococcus aureus [4] = assay: Minimum inhibitory concentration in Staphylococcus aureus ATCC 25923 strian was determined; format: functional
Escherichia coli [5] = assay: Minimum […] concentration in Escherichia coli E1 strain was determined; format: functional
Acinetobacter sp. [6] = assay: Minimum inhibitory concentration in Acinetobacter species A1 strain was determined; format: functional
Staphylococcus aureus [7] = assay: Minimum […] concentration in Staphylococcus aureus S2 strain was determined; format: functional
[8] = Minimum […] concentration in Enterobacter En3 strain was determined; format: functional
Klebsiella pneumoniae [9] = assay: Minimum […] concentration in Klebsiella pneumoniae K1 strain was determined; format: functional
Pseudomonas aeruginosa [10] = assay: Minimum […] concentration in Pseudomonas aeruginosa P12 strain was determined; format: functional
Escherichia coli [11] = assay: Minimum inhibitory concentration in Escherichia coli ATCC 25922 strain was determined; format: functional
Escherichia coli [12] = assay: Minimum inhibitory concentration in Escherichia coli E1 strain was determined; format: functional
Klebsiella pneumoniae [13] = assay: Minimum inhibitory concentration in Klebsiella pneumoniae K2 strain was determined; format: functional
Klebsiella pneumoniae [14] = assay: Minimum […] concentration in Klebsiella pneumoniae K2 strain was determined; format: functional
Pseudomonas aeruginosa [15] = assay: Minimum […] concentration in Pseudomonas aeruginosa P7 strain was determined; format: functional
[16] = Minimum inhibitory concentration in Enterobacter En3 strain was determined; format: functional
Staphylococcus aureus [17] = assay: Minimum […] concentration in Staphylococcus aureus ATCC 25923 strain was determined; format: functional
Staphylococcus aureus [18] = assay: Minimum inhibitory concentration in Staphylococcus aureus S1 strain was determined; format: functional
Escherichia coli [19] = assay: Minimum inhibitory concentration in Escherichia coli E3 strain was determined; format: functional
Escherichia coli [20] = assay: Minimum […] concentration Escherichia coli ATCC 25922 strain was determined; format: functional
[21] = Minimum […] concentration in Enterobacter En1 strain was determined; format: functional
Pseudomonas aeruginosa [22] = assay: Minimum inhibitory concentration in Pseudomonas aeruginosa P12 strain was determined; format: functional
Staphylococcus aureus [23] = assay: Minimum inhibitory concentration in Staphylococcus aureus S2 strain was determined; format: functional
[24] = Minimum inhibitory concentration in Enterobacter En1 strain was determined; format: functional
Klebsiella pneumoniae [25] = assay: Minimum inhibitory concentration in Klebsiella pneumoniae K1 strain was determined; format: functional
Pseudomonas aeruginosa [26] = assay: Minimum […] concentration in Pseudomonas aeruginosa ATCC 27853 was determined; format: functional
Escherichia coli [27] = assay: Minimum […] concentration in Escherichia coli E3 strain was determined; format: functional
Pseudomonas aeruginosa [28] = assay: Minimum inhibitory concentration in Pseudomonas aeruginosa ATCC 27853 strain was determined; format: functional
Pseudomonas aeruginosa [29] = assay: Minimum inhibitory concentration in Pseudomonas aeruginosa P7 strain was determined; format: functional
Staphylococcus aureus [30] = assay: Zone of inhibition of Staphylococcus aureus after treatment with compound; format: functional
Acinetobacter sp. [31] = assay: Minimum inhibitory concentration in Acinetobacter species A2 strain was determined; format: functional
Staphylococcus aureus [32] = assay: Minimum […] concentration in Staphylococcus aureus S1 strain was determined; format: functional
Acinetobacter sp. [33] = assay: Minimum […] concentration in Acinetobacter species A1 strain was determined; format: functional
Acinetobacter sp. [34] = assay: Minimum […] concentration in Acinetobacter species A2 strain was determined; format: functional
Escherichia coli [35] = assay: Zone of inhibition of Escherichia coli after treatment with the 30 ug of the compound; format: functional
Staphylococcus aureus [36] = assay: Zone of inhibition of Staphylococcus aureus after treatment with the 30 ug of the compound; format: functional
Pseudomonas aeruginosa [37] = assay: Zone of inhibition of Pseudomonas aeruginosa after treatment with the 30 ug of the compound; format: functional
Pseudomonas aeruginosa [38] = assay: Zone of inhibition of Pseudomonas aeruginosa after treatment with 10 ug of the compound; format: functional, organism-based
Staphylococcus aureus [39] = assay: Zone of inhibition of Staphylococcus aureus after treatment with 10 ug of the compound; format: functional, organism-based
Escherichia coli [40] = assay: Zone of inhibition of Escherichia coli after treatment with 10 ug of the compound; format: functional, organism-based

## C[S+](C)[O-] [DIMETHYL SULFOXIDE]
Staphylococcus aureus [1]
  Inhibition: 0 mm
Escherichia coli [2]
  Inhibition: 0 mm
Pseudomonas aeruginosa [3]
  Inhibition: 0 mm

## C/N=C1\C(Cl)=C(O)OC1O (stereo unspecified)
Staphylococcus aureus [4]
  MIC: 8 µg/mL (≈ 48.9 µM)
Escherichia coli [5]
  MBC: 32 µg/mL (≈ 196 µM)
Acinetobacter sp. [6]
  MIC: 8 µg/mL (≈ 48.9 µM)
Staphylococcus aureus [7]
  MBC: 8 µg/mL (≈ 48.9 µM)
[8]
  MBC: 32 µg/mL (≈ 196 µM)
Klebsiella pneumoniae [9]
  MBC: 32 µg/mL (≈ 196 µM)
Pseudomonas aeruginosa [10]
  MBC: 64 µg/mL (≈ 391 µM)
Escherichia coli [11]
  MIC: 16 µg/mL (≈ 97.8 µM)
Escherichia coli [2]
  Inhibition: 11 mm
Escherichia coli [12]
  MIC: 32 µg/mL (≈ 196 µM)
Klebsiella pneumoniae [13]
  MIC: 32 µg/mL (≈ 196 µM)
Klebsiella pneumoniae [14]
  MBC: 64 µg/mL (≈ 391 µM)
Pseudomonas aeruginosa [15]
  MBC: 64 µg/mL (≈ 391 µM)
[16]
  MIC: 32 µg/mL (≈ 196 µM)
Staphylococcus aureus [17]
  MBC: 16 µg/mL (≈ 97.8 µM)
Staphylococcus aureus [18]
  MIC: 16 µg/mL (≈ 97.8 µM)
Escherichia coli [19]
  MIC: 64 µg/mL (≈ 391 µM)
Escherichia coli [20]
  MBC: 32 µg/mL (≈ 196 µM)
[21]
  MBC: 64 µg/mL (≈ 391 µM)
Pseudomonas aeruginosa [22]
  MIC: 32 µg/mL (≈ 196 µM)
Staphylococcus aureus [23]
  MIC: 4 µg/mL (≈ 24.5 µM)
[24]
  MIC: 32 µg/mL (≈ 196 µM)
Klebsiella pneumoniae [25]
  MIC: 16 µg/mL (≈ 97.8 µM)
Pseudomonas aeruginosa [26]
  MBC: 32 µg/mL (≈ 196 µM)
Escherichia coli [27]
  MBC: 64 µg/mL (≈ 391 µM)
Pseudomonas aeruginosa [28]
  MIC: 16 µg/mL (≈ 97.8 µM)
Pseudomonas aeruginosa [3]
  Inhibition: 8 mm
Pseudomonas aeruginosa [29]
  MIC: 32 µg/mL (≈ 196 µM)
Staphylococcus aureus [30]
  Inhibition: 10 mm
Acinetobacter sp. [31]
  MIC: 64 µg/mL (≈ 391 µM)
Staphylococcus aureus [32]
  MBC: 32 µg/mL (≈ 196 µM)
Acinetobacter sp. [33]
  MBC: 16 µg/mL (≈ 97.8 µM)
Acinetobacter sp. [34]
  MBC: 64 µg/mL (≈ 391 µM)

## C/N=C1\C(Br)=C(O)OC1O (stereo unspecified)
Escherichia coli [2]
  Inhibition: 9 mm
Pseudomonas aeruginosa [3]
  Inhibition: 7 mm
Staphylococcus aureus [30]
  Inhibition: 16 mm

## O=C(N[C@H](CO)[C@H](O)c1ccc([N+](=O)[O-])cc1)C(Cl)Cl [CHLORAMPHENICOL]
Escherichia coli [35]
  Inhibition: 15 mm
Staphylococcus aureus [36]
  Inhibition: 0 mm
Pseudomonas aeruginosa [37]
  Inhibition: 0 mm

## OC1=C(Cl)/C(=N\Cc2ccccc2)C(O)O1 (stereo unspecified)
Staphylococcus aureus [4]
  MIC: 4 µg/mL (≈ 16.7 µM)
Escherichia coli [5]
  MBC: 16 µg/mL (≈ 66.8 µM)
Acinetobacter sp. [6]
  MIC: 4 µg/mL (≈ 16.7 µM)
Staphylococcus aureus [7]
  MBC: 32 µg/mL (≈ 134 µM)
[8]
  MBC: 32 µg/mL (≈ 134 µM)
Klebsiella pneumoniae [9]
  MBC: 32 µg/mL (≈ 134 µM)
Pseudomonas aeruginosa [10]
  MBC: 32 µg/mL (≈ 134 µM)
Escherichia coli [11]
  MIC: 8 µg/mL (≈ 33.4 µM)
Escherichia coli [2]
  Inhibition: 6 mm
Escherichia coli [12]
  MIC: 16 µg/mL (≈ 66.8 µM)
Klebsiella pneumoniae [13]
  MIC: 16 µg/mL (≈ 66.8 µM)
Klebsiella pneumoniae [14]
  MBC: 32 µg/mL (≈ 134 µM)
Pseudomonas aeruginosa [15]
  MBC: 32 µg/mL (≈ 134 µM)
[16]
  MIC: 16 µg/mL (≈ 66.8 µM)
Staphylococcus aureus [17]
  MBC: 8 µg/mL (≈ 33.4 µM)
Staphylococcus aureus [18]
  MIC: 16 µg/mL (≈ 66.8 µM)
Escherichia coli [19]
  MIC: 16 µg/mL (≈ 66.8 µM)
Escherichia coli [20]
  MBC: 16 µg/mL (≈ 66.8 µM)
[21]
  MBC: 16 µg/mL (≈ 66.8 µM)
Pseudomonas aeruginosa [22]
  MIC: 16 µg/mL (≈ 66.8 µM)
Staphylococcus aureus [23]
  MIC: 32 µg/mL (≈ 134 µM)
[24]
  MIC: 8 µg/mL (≈ 33.4 µM)
Klebsiella pneumoniae [25]
  MIC: 32 µg/mL (≈ 134 µM)
Pseudomonas aeruginosa [26]
  MBC: 64 µg/mL (≈ 267 µM)
Escherichia coli [27]
  MBC: 32 µg/mL (≈ 134 µM)
Pseudomonas aeruginosa [28]
  MIC: 32 µg/mL (≈ 134 µM)
Pseudomonas aeruginosa [3]
  Inhibition: 6 mm
Pseudomonas aeruginosa [29]
  MIC: 32 µg/mL (≈ 134 µM)
Staphylococcus aureus [30]
  Inhibition: 16 mm
Acinetobacter sp. [31]
  MIC: 8 µg/mL (≈ 33.4 µM)
Staphylococcus aureus [32]
  MBC: 32 µg/mL (≈ 134 µM)
Acinetobacter sp. [33]
  MBC: 8 µg/mL (≈ 33.4 µM)
Acinetobacter sp. [34]
  MBC: 16 µg/mL (≈ 66.8 µM)

## N=C1C(Cl)=C(O)OC1O (stereo unspecified)
Staphylococcus aureus [4]
  MIC: 16 µg/mL (≈ 107 µM)
Escherichia coli [5]
  MBC: 64 µg/mL (≈ 428 µM)
Acinetobacter sp. [6]
  MIC: 16 µg/mL (≈ 107 µM)
Staphylococcus aureus [7]
  MBC: 8 µg/mL (≈ 53.5 µM)
[8]
  MBC: 64 µg/mL (≈ 428 µM)
Klebsiella pneumoniae [9]
  MBC: 64 µg/mL (≈ 428 µM)
Pseudomonas aeruginosa [10]
  MBC: 128 µg/mL (≈ 856 µM)
Escherichia coli [11]
  MIC: 64 µg/mL (≈ 428 µM)
Escherichia coli [2]
  Inhibition: 8 mm
Escherichia coli [12]
  MIC: 32 µg/mL (≈ 214 µM)
Klebsiella pneumoniae [13]
  MIC: 128 µg/mL (≈ 856 µM)
Klebsiella pneumoniae [14]
  MBC: 128 µg/mL (≈ 856 µM)
Pseudomonas aeruginosa [15]
  MBC: 64 µg/mL (≈ 428 µM)
[16]
  MIC: 64 µg/mL (≈ 428 µM)
Staphylococcus aureus [17]
  MBC: 32 µg/mL (≈ 214 µM)
Staphylococcus aureus [18]
  MIC: 16 µg/mL (≈ 107 µM)
Escherichia coli [19]
  MIC: 64 µg/mL (≈ 428 µM)
Escherichia coli [20]
  MBC: 128 µg/mL (≈ 856 µM)
[21]
  MBC: 64 µg/mL (≈ 428 µM)
Pseudomonas aeruginosa [22]
  MIC: 64 µg/mL (≈ 428 µM)
Staphylococcus aureus [23]
  MIC: 4 µg/mL (≈ 26.7 µM)
[24]
  MIC: 64 µg/mL (≈ 428 µM)
Klebsiella pneumoniae [25]
  MIC: 32 µg/mL (≈ 214 µM)
Pseudomonas aeruginosa [26]
  MBC: 64 µg/mL (≈ 428 µM)
Escherichia coli [27]
  MBC: 128 µg/mL (≈ 856 µM)
Pseudomonas aeruginosa [28]
  MIC: 32 µg/mL (≈ 214 µM)
Pseudomonas aeruginosa [3]
  Inhibition: 8 mm
Pseudomonas aeruginosa [29]
  MIC: 32 µg/mL (≈ 214 µM)
Staphylococcus aureus [30]
  Inhibition: 16 mm
Acinetobacter sp. [31]
  MIC: 32 µg/mL (≈ 214 µM)
Staphylococcus aureus [32]
  MBC: 16 µg/mL (≈ 107 µM)
Acinetobacter sp. [33]
  MBC: 32 µg/mL (≈ 214 µM)
Acinetobacter sp. [34]
  MBC: 64 µg/mL (≈ 428 µM)

## GENTAMICIN
Pseudomonas aeruginosa [38]
  Inhibition: 0 mm
Staphylococcus aureus [39]
  Inhibition: 31 mm
Escherichia coli [40]
  Inhibition: 25 mm
